# What was measured:
# [1] = biological target: T1, calcium-sensing receptor (CaSR) (Homo sapiens, UniProt P41180); assay: Ongoing open-label phase 2 proof-of-principle study in women with post-surgical hypoparathyroidism (PSH), NCT05735015; assay type: in vivo
# T1 construct: oral CLTX-305 (encaleret) in post-surgical hypoparathyroidism subjects; clinical safety and blood calcium endpoints
# T1 sequence (P41180 20-1078): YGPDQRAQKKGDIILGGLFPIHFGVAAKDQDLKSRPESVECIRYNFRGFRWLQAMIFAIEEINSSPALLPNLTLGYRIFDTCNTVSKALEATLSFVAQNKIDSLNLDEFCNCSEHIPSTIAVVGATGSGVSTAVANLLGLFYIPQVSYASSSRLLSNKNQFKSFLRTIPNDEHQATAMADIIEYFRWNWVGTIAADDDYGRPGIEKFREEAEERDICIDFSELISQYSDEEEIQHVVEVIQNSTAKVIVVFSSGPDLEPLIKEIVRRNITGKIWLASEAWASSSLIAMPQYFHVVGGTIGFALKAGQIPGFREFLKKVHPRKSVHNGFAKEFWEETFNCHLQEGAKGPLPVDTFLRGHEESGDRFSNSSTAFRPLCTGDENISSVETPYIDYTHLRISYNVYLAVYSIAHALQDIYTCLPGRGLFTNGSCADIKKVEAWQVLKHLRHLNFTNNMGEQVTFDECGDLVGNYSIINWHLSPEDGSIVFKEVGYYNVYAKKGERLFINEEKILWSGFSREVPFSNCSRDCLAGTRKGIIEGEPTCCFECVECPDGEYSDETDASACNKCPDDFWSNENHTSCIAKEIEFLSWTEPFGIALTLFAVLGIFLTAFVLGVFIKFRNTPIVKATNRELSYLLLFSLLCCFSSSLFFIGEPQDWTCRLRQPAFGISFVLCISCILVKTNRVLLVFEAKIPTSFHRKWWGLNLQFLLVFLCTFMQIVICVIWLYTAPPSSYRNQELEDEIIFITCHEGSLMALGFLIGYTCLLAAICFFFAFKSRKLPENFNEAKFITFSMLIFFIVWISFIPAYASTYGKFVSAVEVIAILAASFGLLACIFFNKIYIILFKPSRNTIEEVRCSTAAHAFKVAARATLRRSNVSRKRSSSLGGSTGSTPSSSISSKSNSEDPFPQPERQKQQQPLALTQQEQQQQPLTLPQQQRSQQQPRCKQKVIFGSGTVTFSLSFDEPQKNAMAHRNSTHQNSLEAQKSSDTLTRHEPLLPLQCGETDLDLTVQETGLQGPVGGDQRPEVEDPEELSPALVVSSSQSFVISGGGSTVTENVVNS
# From the text: Title: Phase 2 study of the PTH-independent Effects of formula (I) (e.g., CLTX-305) on Mineral Homeostasis in subjects with post-surgical hypoparathyroidism (PSH).
# Study Description: This will be a single-site, proof-of-principle, open-label study to explore the PTH-independent effects of formula (I) (e.g., CLTX-305) on calcium homeostasis in subjects with low or undetectable PTH levels as a result of neck surgery (PSH).
# Primary Endpoint: Percent change in Fractional Excretion of Calcium (FECa) from baseline (Day −1) to the final day of treatment (Day 6 or the last measurement while on formula (I) (e.g., CLTX-305)). FECa calculated using fasting blood levels and spot urine collection.
# Secondary Endpoints: Proportion of subjects who achieve a concomitant normal fasting blood calcium (albumin-corrected calcium >8.5 mg/dL) and a normal 24-hour urinary calcium level (<250 mg/24 hours for women, <300 mg/24 hours for men) on formula (I) (e.g., CLTX-305) at any point between day 1 and day 5.
# • Change in blood iPTH comparing average baseline iPTH to average peak iPTH on formula (I) (e.g., CLTX-305). The average baseline iPTH will include all baseline iPTH levels from the screening visit, Day −1, and pre-dose on Day 1. The average peak iPTH will average the peak iPTH levels on every day the subject is on formula (I) (e.g., CLTX-305) (days 1 to 5). An increase in iPTH will be considered clinically significant if there is an increase both by 50% AND by more than […]. • Change in 1,25-(OH)2 Vitamin D on formula (I) (e.g., CLTX-305) comparing the maximal level prior to receiving calcitriol (On Days 3-5) to baseline (Average of Day 1 Pre-dose levels). Increase will be considered significant if there is an increase of more than 50%. Subjects who receive calcitriol prior to Day 3 will be excluded. • Percent change in Fractional Excretion of Calcium (FECa) from baseline […] to the final day of treatment (Day 6 or the last measurement while n encaleret). FECa calculated using fasting blood levels and spot urine collection. • Pharmacodynamic endpoints measured over 5 days of formula (I) (e.g., CLTX-305) therapy: • Blood iPTH—Absolute levels and change from baseline • Albumin-corrected blood calcium—Absolute levels and change from baseline • Ionized Calcium—Absolute levels and change from baseline • Urinary calcium clearance (fractional excretion and 24-hour total excretion)—Absolute levels and change from baseline • Serum levels of 1,25-(OH)2 Vitamin D—Absolute levels and change from baseline • Blood intact FGF23 (iFGF23) and C-terminal FGF23 (cFGF23)—Absolute levels and change from baseline • Urine cAMP and citrate—Absolute levels and change from baseline • Blood bone resorption marker, collagen cross-linked C-telopeptide (CTx)—Absolute levels and change from baseline • Blood bone formation marker, blood procollagen type 1 N-propeptide (P1NP)—Absolute levels and change from baseline • Change in components of urine including: supersaturation, sodium, potassium, calcium, magnesium, chloride, phosphorus, sulfate, citrate excretion, oxalate, pH, uric acid, creatinine, osmolality, ammonium, urea nitrogen, protein catabolic rate • PK parameters such as maximum plasma concentration Cmax), time to maximum plasma concentration (tmax), apparent terminal half-life (t½) • Subgroup analysis of other primary, secondary, and tertiary endpoints
# Intervention: CLTX-305 will be provided as an oral film-coated tablet. Each tablet contains 54 mg of formula (I) on a salt-free and anhydrous basis (i.e., 60 mg of CLTX-305). Subjects will receive 3 tablets twice a day (BID).
# The investigational medicinal product (IMP), formula (I) (e.g., CLTX-305), will be provided as film-coated tablets containing the active ingredient formula (I) on a salt-free and anhydrous basis provided in 54 mg dosage strength. Subjects will receive active ingredient formula (I) 162 mg (i.e., 180 mg CLTX-305) (3 tablets) BID per protocol with water. […]
# osteoporosis = settings: late phase trials; postmenopausal women with osteoporosis; cited from earlier work
# [2] = test system: calcium-sensing receptor (CaSR); settings: individuals with functioning parathyroid tissue; calcilytics (e.g., CLTX-305); cited from earlier work
# [3] = thiazide discontinuation before treatment; cited from earlier work
smiles,measurement,setting,value
Cc1cc(-c2ccccc2[C@@H](C)OC[C@H](O)CNC(C)(C)Cc2ccc(Cl)c(F)c2)ccc1C(=O)O [CLTX-305],PTH after transient increase,"[1]; after the 30 minutes increase, baseline 7.4 pg/mL, n=4",returned to near baseline levels
same,"FECa, effect in words",[1]; first four participants with PSH,reduced FECa
same,Serious adverse events,[1]; four women with PSH,no serious adverse events reported
same,Treatment-related adverse events (AEs),[1]; four women with PSH,mild hypercalcemia causing headache in 1 participant
same,Bone turnover markers,"[1]; four women with PSH, 162 mg every 12 hours, up to 10 doses",normal and did not change
same,"PTH, transient increase","[1]; mean (range), 30 minutes after the first dose, baseline 7.4 pg/mL (range 4.6-10.1; nl 15-65), n=4",13.0 (4.5-18.1) pg/mL
same,Decrease in fractional excretion of calcium (FECa),"[1]; mean (range), fasting, 12 hours after last dose vs fasting baseline pre-dose, four women with PSH, CLTX-305 162 mg every 12 hours for up to 10 doses",52% (34-78)
same,Albumin-corrected blood calcium,"[1]; mean (range), fasting, 12 hours after last dose, baseline 8.4 mg/dL (range 8.1-8.6; nl 8.4-10.2), 162 mg every 12 hours, up to 10 doses, n=4",9.3 (8.6-10.7) mg/dL
same,Urinary calcium excretion,"[1]; mean (range), on treatment, baseline 348 mg/day (range 204-501; nl<250), 162 mg every 12 hours, up to 10 doses, n=4",169 (76-350) mg/day
same,Participants who discontinued calcium supplementation to maintain eucalcemia,"[1]; of four women with PSH, all received calcium supplementation initially",1 participant
same,Participants who required re-initiation of low-dose calcitriol to maintain eucalcemia,"[1]; of four women with PSH, calcitriol 0.25 mcg daily",3
same,Normalization of urinary calcium excretion,"[1]; of four women with PSH, nl<250 mg/day",3 participants
same,24-hour urine calcium despite elevated blood calcium,[1]; one participant with mild hypercalcemia,< 200 mg/day
same,Time for which blood calcium continued to be mildly elevated after the last dose,"[1]; one participant with mild hypercalcemia, calcium and calcitriol supplementation discontinued",60 h
same,Decrease in urinary calcium excretion in the fourth participant,"[1]; one participant without normalization, 162 mg every 12 hours, up to 10 doses",30%
same,Bone mineral density (BMD) efficacy,osteoporosis,failed to demonstrate efficacy on endpoints of bone mineral density (BMD)
same,"Blood calcium levels, in words",[2],increased blood calcium levels
same,PTH secretion,[2],increase PTH secretion
same,"Urinary calcium excretion, in words",[2],decrease urinary calcium excretion
NS(=O)(=O)c1cc2c(cc1Cl)N=CNS2(=O)=O [chlorothiazide],5 half-lives,[3],10 h
NS(=O)(=O)c1cc(C2(O)NC(=O)c3ccccc32)ccc1Cl (stereo not shown) [chlorthalidone],5 half-lives,[3],300 h
NS(=O)(=O)c1cc2c(cc1Cl)NCNS2(=O)=O [hydrochlorothiazide],5 half-lives,[3],75 h

# Reference: patent US20260294857A1, “TREATMENT OF HYPOPARATHYROIDISM USING TRIPHENYL CALCILYTIC COMPOUNDS” (CALCILYTIX THERAPEUTICS, INC., priority 2023, published 2026)
